According to patent US12011444B2, “N-substituted indole derivatives as PGE2 receptor modulators” (Idorsia Pharmaceuticals Ltd, priority 2015, dated 2024):
pIC50: −log10 of the molar value.

Legend:
PTGER2 (EP2) = PTGER2 (EP2) (Homo sapiens (Human), UniProt P43116); assay: hEP2 b-arrestin assay (PathHunter HEK 293 PTGER2 b-arrestin cells); assay type: cell-based; conditions: hEP2 b-arrestin assay (values without asterisk)
Procedure, shortened: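 HEK293 cells expressing ProLink-tagged EP2 and EA-fused β-arrestin 2 (enzyme fragment complementation) were seeded 24 h, pre-incubated with compound 15 min at 37 °C, then stimulated with 5 μM PGE2 (final) for 120 min.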

PTRGER4 (EP4) = PTRGER4 (EP4) (Homo sapiens (Human), UniProt P35408); assay: hEP4 b-arrestin assay (PathHunter HEK 293 PTGER4 b-arrestin cells); assay type: cell-based; conditions: hEP4 b-arrestin assay (values without asterisk)
PTRGER4 (EP4), sequence (P35408 whole entry, looked up, the tested form may be a part): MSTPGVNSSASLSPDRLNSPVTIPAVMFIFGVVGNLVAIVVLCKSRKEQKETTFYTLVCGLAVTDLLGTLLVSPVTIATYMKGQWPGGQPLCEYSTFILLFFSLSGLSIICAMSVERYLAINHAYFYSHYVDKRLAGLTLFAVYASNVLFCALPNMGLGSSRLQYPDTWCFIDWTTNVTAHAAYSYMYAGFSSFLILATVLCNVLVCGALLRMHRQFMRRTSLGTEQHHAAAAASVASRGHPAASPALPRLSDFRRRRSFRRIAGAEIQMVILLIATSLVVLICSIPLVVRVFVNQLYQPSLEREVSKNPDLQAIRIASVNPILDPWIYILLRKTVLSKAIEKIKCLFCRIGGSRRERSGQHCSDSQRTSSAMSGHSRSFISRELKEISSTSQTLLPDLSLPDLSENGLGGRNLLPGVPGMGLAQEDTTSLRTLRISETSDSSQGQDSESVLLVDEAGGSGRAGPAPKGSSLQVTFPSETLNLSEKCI
Procedure, shortened: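 Stably transfected HEK293 cells carrying EP4–ProLink and β-arrestin 2–EA (β-gal fragment complementation), pre-incubated with compound 15 min at 37 °C, then stimulated with PGE2 (20 nM final) for 120 min at 37 °C. Chemiluminescence read after 1 h detection reagent at room temperature; activity per concentration expressed as percent of DMSO control.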

PTGER2 (EP2), sequence (P43116 whole entry, the tested form may be a part): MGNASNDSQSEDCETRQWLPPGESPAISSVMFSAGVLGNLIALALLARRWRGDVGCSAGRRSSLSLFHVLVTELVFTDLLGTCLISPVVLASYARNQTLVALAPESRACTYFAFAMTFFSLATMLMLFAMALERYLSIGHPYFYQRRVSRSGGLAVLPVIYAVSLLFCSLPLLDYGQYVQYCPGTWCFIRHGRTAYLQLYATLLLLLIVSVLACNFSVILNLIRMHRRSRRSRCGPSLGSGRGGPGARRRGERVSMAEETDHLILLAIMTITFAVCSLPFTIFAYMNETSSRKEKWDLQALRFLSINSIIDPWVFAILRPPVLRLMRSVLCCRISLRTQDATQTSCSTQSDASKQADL

CCOc1cc(-c2cc(NCCn3c(C#N)cc4c(OC)ccc(F)c43)ncn2)sc1C(=O)NCCOC [Example 1028, 5-{6-[2-(2-Cyano-7-fluoro-4-methoxy-indol-1-yl)-ethylamino]-pyrimidin-4-yl}-3-ethoxy-thiophene-2-carboxylic acid (2-methoxy-ethyl)-amide]
pIC50 (PTGER2 (EP2)): 8.05 | pIC50 (PTRGER4 (EP4)): 8.70

CCOc1cc(-c2cc(NCCn3c(C#N)cc4c(OC)ccc(F)c43)ncn2)sc1C(=O)NS(N)(=O)=O [Example 1029, 5-(6-((2-(2-Cyano-7-fluoro-4-methoxy-1H-indol-1-yl)ethyl)amino)pyrimidin-4-yl)-3-ethoxy-N-sulfamoylthiophene-2-carboxamide]
pIC50 (PTGER2 (EP2)): 8.40 | pIC50 (PTRGER4 (EP4)): 8.22

CCOc1cc(-c2cc(NCCn3c(C#N)cc4c(OC)ccc(F)c43)ncn2)sc1C(=O)NO [Example 1030, 5-{6-[2-(2-Cyano-7-fluoro-4-methoxy-indol-1-yl)-ethylamino]-pyrimidin-4-yl}-3-ethoxy-thiophene-2-carboxylic acid hydroxyamide]
pIC50 (PTGER2 (EP2)): 7.82 | pIC50 (PTRGER4 (EP4)): 8.52

CCOc1cc(-c2cc(NCCn3c(C)cc4c(OC)ccc(F)c43)ncn2)sc1CO [Example 1031, (3-Ethoxy-5-{6-[2-(7-fluoro-4-methoxy-2-methyl-indol-1-yl)-ethylamino]-pyrimidin-4-yl}-thiophen-2-yl)methanol]
pIC50 (PTGER2 (EP2)): 8.52 | pIC50 (PTRGER4 (EP4)): 7.72

COc1ccc(F)c2c1cc(C)n2CCNc1cc(-c2nc(OC(C)C)c(C(=O)O)s2)ncn1 [Example 1032, 2-{6-[2-(7-Fluoro-4-methoxy-2-methyl-indol-1-yl)-ethylamino]-pyrimidin-4-yl}-4-isopropoxy-thiazole-5-carboxylic acid]
pIC50 (PTGER2 (EP2)): 8.00 | pIC50 (PTRGER4 (EP4)): 7.85

COc1nc(-c2cc(NCCn3c(C)cc4c(OC)ccc(F)c43)ncn2)sc1C(=O)O [Example 1033, 2-{6-[2-(7-Fluoro-4-methoxy-2-methyl-indol-1-yl)-ethylamino]-pyrimidin-4-yl}-4-methoxy-thiazole-5-carboxylic acid]
pIC50 (PTGER2 (EP2)): 8.15 | pIC50 (PTRGER4 (EP4)): 7.43

CCOc1nc(-c2cc(NCCn3c(C)cc4c(OC)ccc(F)c43)ncn2)sc1C(=O)O [Example 1034, 4-Ethoxy-2-{6-[2-(7-fluoro-4-methoxy-2-methyl-indol-1-yl)-ethylamino]-pyrimidin-4-yl}-thiazole-5-carboxylic acid]
pIC50 (PTGER2 (EP2)): 8.30 | pIC50 (PTRGER4 (EP4)): 7.77

CCCOc1nc(-c2cc(NCCn3c(C)cc4c(OC)ccc(F)c43)ncn2)sc1C(=O)O [Example 1035, 2-{6-[2-(7-Fluoro-4-methoxy-2-methyl-indol-1-yl)-ethylamino]-pyrimidin-4-yl}-4-propoxy-thiazole-5-carboxylic acid]
pIC50 (PTGER2 (EP2)): 8.70 | pIC50 (PTRGER4 (EP4)): 7.54

COc1ccc(F)c2c1cc(C)n2CCNc1cc(-c2nc(CC(C)C)c(C(=O)O)s2)ncn1 [Example 1036, 2-{6-[2-(7-Fluoro-4-methoxy-2-methyl-indol-1-yl)-ethylamino]-pyrimidin-4-yl}-4-isobutyl-thiazole-5-carboxylic acid]
pIC50 (PTGER2 (EP2)): 7.62 | pIC50 (PTRGER4 (EP4)): 7.70

CCc1nc(-c2cc(NCCn3c(C)cc4c(OC)ccc(F)c43)ncn2)sc1C(=O)O [Example 1037, 4-Ethyl-2-{6-[2-(7-fluoro-4-methoxy-2-methyl-indol-1-yl)-ethylamino]-pyrimidin-4-yl}-thiazole-5-carboxylic acid]
pIC50 (PTGER2 (EP2)): 7.22 | pIC50 (PTRGER4 (EP4)): 7.00

COc1ccc(F)c2c1cc(C)n2CCNc1cc(-c2nc(C(C)(C)C)c(C(=O)O)s2)ncn1 [Example 1038, 4-tert-Butyl-2-{6-[2-(7-fluoro-4-methoxy-2-methyl-indol-1-yl)-ethylamino]-pyrimidin-4-yl}-thiazole-5-carboxylic acid]
pIC50 (PTGER2 (EP2)): 7.19 | pIC50 (PTRGER4 (EP4)): 7.70

COc1ccc(F)c2c1cc(C)n2CCNc1cc(-c2ccc(C(=O)O)c(OC3CC4(COC4)C3)c2)ncn1 [Example 1039, 4-{6-[2-(7-Fluoro-4-methoxy-2-methyl-indol-1-yl)-ethylamino]-pyrimidin-4-yl}-2-(2-oxaspiro[3.3]hept-6-yloxy)-benzoic acid]
pIC50 (PTGER2 (EP2)): 6.98 | pIC50 (PTRGER4 (EP4)): 6.65

CCOc1cc(-c2cc(NCCn3c(C)cc4c(OC)ccc(F)c43)ncn2)ccc1C(=O)CO [Example 1040, 1-(2-Ethoxy-4-{6-[2-(7-fluoro-4-methoxy-2-methyl-indol-1-yl)-ethylamino]-pyrimidin-4-yl}-phenyl)-2-hydroxy-ethanone]
pIC50 (PTGER2 (EP2)): 7.04 | pIC50 (PTRGER4 (EP4)): 6.39

COC(=O)Nc1ccc(-c2cc(NCCn3c(C)cc4c(OC)ccc(F)c43)ncn2)cc1 [Example 1041, (4-{6-[2-(7-Fluoro-4-methoxy-2-methyl-indol-1-yl)-ethylamino]-pyrimidin-4-yl}-phenyl)-carbamic acid methyl ester]
pIC50 (PTGER2 (EP2)): 7.59 | pIC50 (PTRGER4 (EP4)): 6.61

CCOc1cc(-c2cc(NCCn3c(C)cc4c(OC)ccc(F)c43)ncn2)ccc1NCC(=O)OC [Example 1042, (2-Ethoxy-4-{6-[2-(7-fluoro-4-methoxy-2-methyl-indol-1-yl)-ethylamino]-pyrimidin-4-yl}-phenylamino)-acetic acid methyl ester]
pIC50 (PTGER2 (EP2)): 7.96 | pIC50 (PTRGER4 (EP4)): 7.24

CCOc1cc(-c2cc(NCCn3c(C#N)cc4c(OC)ccc(F)c43)ncn2)sc1C(=O)OCC(=O)O [Example 1043, 5-{6-[2-(2-Cyano-7-fluoro-4-methoxy-indol-1-yl)-ethylamino]-pyrimidin-4-yl}-3-ethoxy-thiophene-2-carboxylic acid carboxymethyl ester]
pIC50 (PTGER2 (EP2)): 8.30 | pIC50 (PTRGER4 (EP4)): 9.00

CCOc1cc(-c2cc(NCCn3c(C#N)cc4c(OC)ccc(F)c43)ncn2)sc1C(=O)OCC(=O)N(C)C [Example 1044, 5-{6-[2-(2-Cyano-7-fluoro-4-methoxy-indol-1-yl)-ethylamino]-pyrimidin-4-yl}-3-ethoxy-thiophene-2-carboxylic acid dimethylcarbamoylmethyl ester]
pIC50 (PTGER2 (EP2)): 8.05 | pIC50 (PTRGER4 (EP4)): 8.52

CCCC(=O)OCOC(=O)c1sc(-c2cc(NCCn3c(C#N)cc4c(OC)ccc(F)c43)ncn2)cc1OCC [Example 1045, 5-{6-[2-(2-Cyano-7-fluoro-4-methoxy-indol-1-yl)-ethylamino]-pyrimidin-4-yl}-3-ethoxy-thiophene-2-carboxylic acid butyryloxymethyl ester]
pIC50 (PTGER2 (EP2)): 7.80 | pIC50 (PTRGER4 (EP4)): 8.40

CCOC(=O)OCOC(=O)c1sc(-c2cc(NCCn3c(C#N)cc4c(OC)ccc(F)c43)ncn2)cc1OCC [Example 1046, 5-{6-[2-(2-Cyano-7-fluoro-4-methoxy-indol-1-yl)-ethylamino]-pyrimidin-4-yl}-3-ethoxy-thiophene-2-carboxylic acid ethoxycarbonyloxymethyl ester]
pIC50 (PTGER2 (EP2)): 7.57 | pIC50 (PTRGER4 (EP4)): 8.30

CCOc1cc(-c2cc(NCCn3c(C#N)cc4c(OC)ccc(F)c43)ncn2)sc1C(=O)OCc1oc(=O)oc1C [Example 1047, 5-{6-[2-(2-Cyano-7-fluoro-4-methoxy-indol-1-yl)-ethylamino]-pyrimidin-4-yl}-3-ethoxy-thiophene-2-carboxylic acid 5-methyl-2-oxo-[1,3]dioxol-4-ylmethyl ester]
pIC50 (PTGER2 (EP2)): 8.30 | pIC50 (PTRGER4 (EP4)): 8.52

CCOc1cc(-c2cc(NCCn3c(C#N)cc4c(OC)ccc(F)c43)ncn2)sc1C(=O)OCCN(C)C [Example 1048, 5-{6-[2-(2-Cyano-7-fluoro-4-methoxy-indol-1-yl)-ethylamino]-pyrimidin-4-yl}-3-ethoxy-thiophene-2-carboxylic acid 2-dimethylamino-ethyl ester]
pIC50 (PTGER2 (EP2)): 8.00 | pIC50 (PTRGER4 (EP4)): 8.40
